A word on the mortality: it is the share of the test organisms that died.

Where two headings read alike, the source gives them in different places.

The values below come from patent US20250228239A1, “MOLECULES HAVING PESTICIDAL UTILITY, AND INTERMEDIATES, COMPOSITIONS, AND PROCESSES, RELATED THERETO” (priority 2024, published 2025).

Holding throughout (type): in vivo
Data set [1] deals with Beet Armyworm (Spodoptera exigua, LAPHEG). Nature of the data set: Bioassays on Beet Armyworm (BAW), 128-well diet tray assay. To be noted: Spodoptera exigua; for mortality at 50 µg/cm2: 168 h, second instar larvae, 50 μg/cm^2 of test molecule on artificial diet, 25° C., five to seven days, average of eight wells, read-out: BAW % Control (or Mortality) rating. The procedure, abridged: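 Larvae at second instar are exposed on dried, compound-treated diet (50 μg/cm^2, delivered in 90:10 acetone-water) in eight replicate wells. After five to seven days at 25° C., 14:10 light-dark, percent mortality in each well is scored and the eight wells averaged.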

Data set [2] deals with Cabbage Looper (Trichoplusia ni, TRIPNI). Nature of the data set: Bioassays on Cabbage Looper (CL), 128-well diet tray assay. The note with it: Trichoplusia ni; for mortality at 50 µg/cm2: 168 h, second instar larvae, 50 μg/cm^2 of test molecule on artificial diet, 25° C., five to seven days, average of eight wells, read-out: CL % Control (or Mortality) rating. The essentials: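 One to five second-instar larvae per well on artificial diet surface-treated with 50 μg/cm^2 test molecule (applied in 90:10 acetone-water, dried). Held 5–7 days at 25° C, 14:10 light-dark; percent mortality recorded per well and averaged over eight wells.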

The subject of data set [3] is Yellow Fever Mosquito (Aedes aegypti, AEDSAE). The note with it: for YFM rating: Table ABC / ABC-DP rating; for YFM % Control (or Mortality) rating: about 1 day-old larvae, 4000 ppm master solution diluted with 90:10 water/acetone, 15 μL per well plus 220 μL larval mixture, 3 days. The essentials:
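Compounds from DMSO master plates (4000 ppm stock) diluted in 90:10 water/acetone, then dispensed into six replicate plates and infested with ~1-day-old Aedes aegypti larvae in liver-powder water. Held covered at room temperature for 3 days; each well scored for larval mortality and graded on a rating scale.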

Where [4] appears, read: Beet Armyworm, Table ABC / ABC-DP rating, read-out: BAW rating.
Setting [5] is: Cabbage Looper, Table ABC / ABC-DP rating, read-out: CL rating.
Setting [6] is: Table ABC: Biological Results, species BAW, read-out: BAW.
Setting [7] is: Table ABC: Biological Results, species CL, read-out: CL.
[8] abbreviates: Table ABC: Biological Results, species YFM.

Turning to `O=C(NNc1ccc(F)cc1)c1cc(NC(=O)[C@H]2[C@H](c3cc(Cl)cc(Cl)c3)C2(Cl)Cl)ccc1Cl` (relative stereo) [F2553, trans-2,2-Dichloro-N-(4-chloro-3-(2-(4-fluorophenyl)hydrazine-1-carbonyl)phenyl)-3-(3,5-dichlorophenyl)cyclopropane-1-carboxamide], the pest or weed control at 50 µg/cm2 in data set [1] (setting [4]) and in data set [2] (setting [5]) was 50 to 100% each time. The YFM rating result in data set [3] (Yellow Fever Mosquito) is “A (80–100)”.

As to `CN(C(=O)c1cc(NC(=O)[C@H]2[C@H](c3ccc(F)c(C(F)(F)F)c3)C2(Cl)Cl)ccc1Cl)c1ccc(F)c(NC(=O)C(F)(F)F)c1F` [F1795, 2-Chloro-5-((1R,3R)-2,2-dichloro-3-(4-fluoro-3-(trifluoromethyl)phenyl)cyclopropane-1-carboxamido)-N-(2,4-difluoro-3-(2,2,2-trifluoroacetamido)phenyl)-N-methylbenzamide], the pest or weed control at 50 µg/cm2 in data set [1] (setting [4]) and in data set [2] (setting [5]) was 50 to 100% throughout. Besides, the YFM rating entry in data set [3] (Yellow Fever Mosquito) is on record as “A (80–100)”.

Take `Nc1c(F)ccc(NC(=O)c2cc(NC(=O)[C@H]3[C@H](c4ccc(Cl)c(C(F)F)c4)C3(Cl)Cl)ccc2Cl)c1F` (relative stereo) [F1037, trans-N-(3-Amino-2,4-difluorophenyl)-2-chloro-5-(2,2-dichloro-3-(4-chloro-3-(difluoromethyl)phenyl)cyclopropane-1-carboxamido)benzamide]: the pest or weed control at 50 µg/cm2 in data set [1] (setting [6]) and in data set [2] (setting [7]) was 50 to 100% throughout. For the same molecule, the YFM entry in data set [3] (setting [8]) was “A (80–100)”.

For the molecule `O=C(CC1(C(F)(F)F)CC1)Nc1c(F)ccc(NC(=O)c2cc(NC(=O)[C@H]3[C@H](c4ccc(F)c(C(F)(F)F)c4)C3(Cl)Cl)ccc2Cl)c1F` [F1836, 2-Chloro-5-((1R,3R)-2,2-dichloro-3-(4-fluoro-3-(trifluoromethyl)phenyl)cyclopropane-1-carboxamido)-N-(2,4-difluoro-3-(2-(1-(trifluoromethyl)cyclopropyl)acetamido)phenyl)benzamide], the pest or weed control at 50 µg/cm2 in data set [1] (setting [4]) and in data set [2] (setting [5]) was 50 to 100% in each case. In addition, in data set [3] (Yellow Fever Mosquito), the YFM rating entry is recorded as “A (80–100)”.

On to `CC(=O)Nc1cc(NC(=O)c2cc(NC(=O)[C@H]3[C@H](c4ccc(Cl)c(Cl)c4)C3(Cl)Cl)ccc2F)c(F)cc1F` [F1511, N-(5-Acetamido-2,4-difluorophenyl)-5-((1R,3R)-2,2-dichloro-3-(3,4-dichlorophenyl)cyclopropane-1-carboxamido)-2-fluorobenzamide], for which the pest or weed control at 50 µg/cm2 in data set [1] (Beet Armyworm, rating class, read-out: BAW) was 50 to 100%; in data set [2] (Cabbage Looper, rating class, read-out: CL), 50 to 100%. Besides, the YFM result in data set [3] (Yellow Fever Mosquito, rating class) is “A (80–100)”.

For `CCOC(C)C(=O)Nc1c(F)ccc(N(C)C(=O)c2cc(NC(=O)[C@H]3[C@H](c4ccc(F)c(C(F)(F)F)c4)C3(Cl)Cl)ccc2Cl)c1F` (stereo partly drawn) [F1797, 2-Chloro-5-((1R,3R)-2,2-dichloro-3-(4-fluoro-3-(trifluoromethyl)phenyl)cyclopropane-1-carboxamido)-N-(3-(2-ethoxypropanamido)-2,4-difluorophenyl)-N-methylbenzamide], the pest or weed control at 50 µg/cm2 in data set [1] (setting [4]) and in data set [2] (setting [5]) was 50 to 100% in each case. Besides, the YFM rating entry in data set [3] (Yellow Fever Mosquito) was “A (80–100)”.

As for `Nc1c(F)ccc(NC(=O)c2cc(NC(=O)[C@H]3[C@H](c4ccc(F)c(C(F)(F)F)c4)C3(Cl)Cl)ccc2Cl)c1F` [DP9, N-(3-amino-2,4-difluorophenyl)-2-chloro-5-((1R,3R)-2,2-dichloro-3-(4-fluoro-3-(trifluoromethyl)phenyl)cyclopropane-1-carboxamido)benzamide], the mortality at 50 µg/cm2 in data set [1] and in data set [2] was 50 to 100% in each case. The pest or weed control at 50 µg/cm2 in data set [1] (setting [4]) and in data set [2] (setting [5]) was 50 to 100% in each case. Also, in data set [3] (Yellow Fever Mosquito), the YFM rating entry was “A (80–100)”. In addition, the “YFM % Control (or Mortality) rating” value in data set [3] is on record as “A (80–100)”.

For the molecule `N#Cc1cc(NC(=O)c2cc(NC(=O)[C@H]3[C@H](c4ccc(F)c(Cl)c4)C3(Cl)Cl)ccc2Cl)ccc1N` (relative stereo) [F1387, trans-N-(4-Amino-3-cyanophenyl)-2-chloro-5-(2,2-dichloro-3-(3-chloro-4-fluorophenyl)cyclopropane-1-carboxamido)benzamide], the pest or weed control at 50 µg/cm2 in data set [1] (setting [6]) and in data set [2] (setting [7]) was 50 to 100% in each case. Also, the YFM result in data set [3] (setting [8]) is “A (80–100)”.

Turning to `Nc1c(F)ccc(NC(=O)c2cc(NC(=O)[C@H]3[C@H](c4ccc(Cl)c(Cl)c4)C3(Cl)Cl)ccc2Cl)c1F` [DP2, N-(3-Amino-2,4-difluorophenyl)-2-chloro-5-((1R,3R)-2,2-dichloro-3-(3,4-dichlorophenyl)cyclopropane-1-carboxamido)benzamide], the mortality at 50 µg/cm2 in data set [1] and in data set [2] was 50 to 100% each time. The pest or weed control at 50 µg/cm2 in data set [1] (setting [4]) and in data set [2] (setting [5]) was 50 to 100% throughout. Moreover, the YFM rating entry in data set [3] (Yellow Fever Mosquito) is “A (80–100)”. Moreover, the “YFM % Control (or Mortality) rating” value in data set [3] was “A (80–100)”.

On to `O=C(NNc1cc(Cl)ccc1Cl)c1cc(NC(=O)[C@H]2[C@H](c3cc(Cl)cc(Cl)c3)C2(Cl)Cl)ccc1Cl` (relative stereo) [F2561, trans-2,2-Dichloro-N-(4-chloro-3-(2-(2,5-dichlorophenyl)hydrazine-1-carbonyl)phenyl)-3-(3,5-dichlorophenyl)cyclopropane-1-carboxamide], for which the pest or weed control at 50 µg/cm2 in data set [1] (setting [4]) and in data set [2] (setting [5]) was 50 to 100% in each case. For the same molecule, the YFM rating result in data set [3] (Yellow Fever Mosquito) is “B (More than 0 – Less than 80)”.

Regarding `CC(C)(C)OC(=O)Nc1c(F)ccc(NC(=O)c2cc(NC(=O)[C@H]3[C@H](c4ccc(F)c(C(F)(F)F)c4)C3(Cl)Cl)ccc2Cl)c1F` (relative stereo) [F1078, trans-tert-Butyl-(3-(2-chloro-5-(2,2-dichloro-3-(4-fluoro-3-(trifluoromethyl)phenyl)cyclopropane-1-carboxamido)benzamido)-2,6-difluorophenyl)carbamate], the pest or weed control at 50 µg/cm2 in data set [1] (setting [6]) and in data set [2] (setting [7]) was 50 to 100% throughout. In addition, in data set [3] (setting [8]), the YFM result is recorded as “A (80–100)”.

In the case of `O=C(CCC(F)(OC(F)(F)F)C(F)(F)F)Nc1c(F)ccc(NC(=O)c2cc(NC(=O)[C@H]3[C@H](c4ccc(F)c(C(F)(F)F)c4)C3(Cl)Cl)ccc2Cl)c1F` (stereo partly drawn) [F1858, 2-Chloro-5-((1R,3R)-2,2-dichloro-3-(4-fluoro-3-(trifluoromethyl)phenyl)cyclopropane-1-carboxamido)-N-(2,4-difluoro-3-(4,5,5,5-tetrafluoro-4-(trifluoromethoxy)pentanamido)phenyl)benzamide], the pest or weed control at 50 µg/cm2 in data set [1] (setting [4]) and in data set [2] (setting [5]) was 50 to 100% each time. In addition, the YFM rating entry in data set [3] (Yellow Fever Mosquito) is on record as “A (80–100)”.

With `Nc1c(F)ccc(NC(=O)c2cc(NC(=O)[C@H]3[C@H](c4cc(Cl)cc(S(F)(F)(F)(F)F)c4)C3(Cl)Cl)ccc2Cl)c1F` (relative stereo) [F1259, trans-N-(3-Amino-2,4-difluorophenyl)-2-chloro-5-(2,2-dichloro-3-(3-chloro-5-(pentafluoro-λ^6-sulfanyl)phenyl)cyclopropane-1-carboxamido)benzamide], the pest or weed control at 50 µg/cm2 in data set [1] (setting [6]) and in data set [2] (setting [7]) was 50 to 100% each time. For the same molecule, the YFM result in data set [3] (setting [8]) is reported as “A (80–100)”.
